# Reference: paper PMC11288027, “Exploring novel microbial metabolites and drugs for inhibiting Clostridioides difficile” (mSphere, 2024)
# Values joined by “and” are separate entries in the source; they are usually repeats but may differ in a detail not shown here. Identical values can stand only once. Counter-ions that a name gives are not always drawn. Like-named read-outs stand apart in the source and are kept apart here.
# What was measured:
# [1] = system: C. difficile clinical isolates; assay: MIC against a panel of 20 C. difficile clinical isolates (broth microdilution); type: cell-based, Clostridioides difficile; conditions: Clostridioides difficile
# B. fragilis = assay: MIC against human gut microbiota; type: cell-based, Bacteroides fragilis; conditions: for MIC: Bacteroides fragilis, read-out: minimum inhibitory concentration (MIC)
# B. dorei = assay: MIC against human gut microbiota; type: cell-based, Bacteroides dorei; conditions: Phocaeicola dorei, read-out: minimum inhibitory concentration (MIC)
# Bif. breve = assay: MIC against human gut microbiota; type: cell-based, Bifidobacterium breve; conditions: Bifidobacterium breve
# Bif. angulatum = assay: MIC against human gut microbiota; type: cell-based, Bifidobacterium angulatum; conditions: Bifidobacterium angulatum, read-out: minimum inhibitory concentration (MIC)
# Bif. adolescentis = assay: MIC against human gut microbiota; type: cell-based, Bifidobacterium adolescentis; conditions: Bifidobacterium adolescentis, read-out: minimum inhibitory concentration (MIC)
# Bif. longum = assay: MIC against human gut microbiota; type: cell-based, Bifidobacterium longum; conditions: Bifidobacterium longum
# E. faecium = assay: MIC against human gut microbiota; type: cell-based, Enterococcus faecium; conditions: Enterococcus faecium, read-out: minimum inhibitory concentration (MIC)
# E. fecalis = assay: MIC against human gut microbiota; type: cell-based, Enterococcus faecalis; conditions: Enterococcus faecalis, read-out: minimum inhibitory concentration (MIC)
# L. casei = assay: MIC against human gut microbiota; type: cell-based; conditions: Lacticaseibacillus casei
# L. brevis = assay: MIC against human gut microbiota; type: cell-based, Lactobacillus brevis; conditions: Levilactobacillus brevis
# L. rhamanosus = assay: MIC against human gut microbiota; type: cell-based, Lactobacillus rhamnoosus; conditions: Lactobacillus
# [2] = system: embryo development in mice; parameters: method as in PMID 19079959; conditions: cited from earlier work
# [3] = system: C. difficile ATCC BAA-1870; assay: Time-kill assay at 5 × MIC; conditions: C. difficile ATCC BAA-1870, ~10^6 CFU/mL, up to 24 h
# [4] = system: C. difficile ATCC BAA-1870; assay: MIC of active hits by broth microdilution; conditions: C. difficile ATCC BAA-1870, 48 h anaerobic; for MIC: Clostridioides difficile, ATCCBAA1870, 48 h
# [5] = system: Staphylococcus epidermidis; parameters: method as in PMID 26414088; conditions: cited from earlier work
# S. aureus = system: S. aureus; parameters: method as in PMID 26414088; conditions: cited from earlier work
# Acinetobacter baumannii = system: Acinetobacter baumannii; parameters: method as in PMID 26414088; conditions: cited from earlier work
# mice = conditions: administered orally; cited from earlier work
# [6] = B. fragilis HM- 718, BHIS broth, anaerobic
smiles,measurement,setting,value
C[C@H](CCC(=O)O)C[C@H](C)C[C@H](C)C(=O)/C=C(\O)[C@H](C)C[C@H](C)C/C=C/[C@@H](C)[C@@H](O)[C@@H](C)[C@@H](O)C[C@@H]1CC[C@@](C)([C@H]2CC[C@@](C)([C@@H](C)O)O2)O1 [Ionomycin (calcium salt)],MIC50,[1],1 µg/mL
same,MIC90,[1],2 µg/mL
same,MIC50,[1]; 48 h,1 µg/mL
same,MIC,"[1]; ATCC630, read-out: minimum inhibitory concentration (MIC)",0.5 µg/mL
same,MIC,"[1]; ATCC43255, read-out: minimum inhibitory concentration (MIC)",1 µg/mL
same,MIC,"[1]; ATCCBAA1870, read-out: minimum inhibitory concentration (MIC)",1 µg/mL
same,minimum inhibitory concentration (MIC),B. fragilis; [6],>256 µg/mL
same,MIC,B. fragilis,> 256 µg/mL
same,MIC,B. dorei,> 256 µg/mL
same,MIC,"Bif. breve; ATCC15700, read-out: minimum inhibitory concentration (MIC)",> 256 µg/mL
same,MIC,Bif. angulatum,64 µg/mL
same,MIC,Bif. adolescentis,16 µg/mL
same,MIC,"Bif. longum; read-out: minimum inhibitory concentration (MIC), Bif. longum HM- 845, BHIS broth, anaerobic",> 256 µg/mL
same,MIC,"Bif. longum; read-out: minimum inhibitory concentration (MIC), Bif. longum HM- 846, BHIS broth, anaerobic",64 µg/mL
same,MIC,"Bif. longum; read-out: minimum inhibitory concentration (MIC), Bif. longum HM- 847, BHIS broth, anaerobic",128 µg/mL
same,MIC,"Bif. longum; read-out: minimum inhibitory concentration (MIC), Bif. longum HM- 848, BHIS broth, anaerobic",256 µg/mL
same,MIC,E. faecium,32 µg/mL
same,MIC,E. fecalis,16 µg/mL
same,MIC,"L. casei; ATCC334, read-out: minimum inhibitory concentration (MIC)",32 µg/mL
same,MIC,"L. brevis; ATCC14864, read-out: minimum inhibitory concentration (MIC)",≥ 256 µg/mL
same,MIC,"L. rhamanosus; ATCC53103, read-out: minimum inhibitory concentration (MIC)",> 256 µg/mL
same,toxicity on embryo development,[2],no toxicity
same,time to bactericidal effect,[3],8 h
same,time to eliminate / clear C. difficile,[3],12 h
same,MIC (μM),[4],4 µM
same,MIC,[4],2.99 µg/mL
Oc1c(Br)cc(Br)c2cccnc12 [Broxyquinoline],MIC50,"[1]; 48 h, concentration that inhibited 50% of the 20 C. difficile clinical isolates, read-out: MIC50",0.125 µg/mL
same,MIC,"[1]; ATCC630, C. difficile ATCC 630, read-out: minimum inhibitory concentration (MIC)",1 µg/mL
same,MIC,"[1]; ATCC43255, C. difficile ATCC 43255, read-out: minimum inhibitory concentration (MIC)",0.25 µg/mL
same,MIC,"[1]; ATCCBAA1870, C. difficile ATCC BAA-1870 (Ribotype-027), purchased compounds, panel test, read-out: minimum inhibitory concentration (MIC)",0.125 µg/mL
same,MIC,"[1]; C. difficile CD-1 (Ribotype-027), read-out: minimum inhibitory concentration (MIC)",0.25 µg/mL
same,MIC,"[1]; C. difficile CD-6 (Ribotype-027), read-out: minimum inhibitory concentration (MIC)",0.25 µg/mL
same,MIC,"[1]; C. difficile CD-10(Ribotype-027), read-out: minimum inhibitory concentration (MIC)",0.125 µg/mL
same,MIC,"[1]; C. difficile CD-12, read-out: minimum inhibitory concentration (MIC)",0.125 µg/mL
same,MIC,"[1]; C. difficile CD-13, read-out: minimum inhibitory concentration (MIC)",0.03 µg/mL
same,MIC,"[1]; C. difficile CD-15, read-out: minimum inhibitory concentration (MIC)",0.25 µg/mL
same,MIC,"[1]; C. difficile CD-22, read-out: minimum inhibitory concentration (MIC)",0.125 µg/mL
same,MIC,"[1]; C. difficile CD-23, read-out: minimum inhibitory concentration (MIC)",0.125 µg/mL
same,MIC,"[1]; C. difficile CD-24, read-out: minimum inhibitory concentration (MIC)",0.015 µg/mL
same,MIC,"[1]; C. difficile CD-26 (Ribotype-027), read-out: minimum inhibitory concentration (MIC)",0.125 µg/mL
same,MIC,"[1]; C. difficile CD-28, read-out: minimum inhibitory concentration (MIC)",0.06 µg/mL
same,MIC,"[1]; C. difficile CD-29 (Ribotype-027), read-out: minimum inhibitory concentration (MIC)",0.06 µg/mL
same,MIC,"[1]; C. difficile CD-30, read-out: minimum inhibitory concentration (MIC)",0.25 µg/mL
same,MIC,"[1]; C. difficile NR-49302, read-out: minimum inhibitory concentration (MIC)",0.06 µg/mL
same,MIC,"[1]; C. difficile NR-49304, read-out: minimum inhibitory concentration (MIC)",0.03 µg/mL
same,MIC,"[1]; C. difficile NR-49308, read-out: minimum inhibitory concentration (MIC)",0.06 µg/mL
same,MIC,"[1]; C. difficile NR-49319, read-out: minimum inhibitory concentration (MIC)",0.25 µg/mL
same,MIC50,"[1]; concentration that inhibited 50% of the 20 C. difficile clinical isolates, read-out: MIC50",0.125 µg/mL
same,MIC90,"[1]; concentration that inhibited 90% of the 20 C. difficile clinical isolates, read-out: MIC90",0.25 µg/mL
same,MIC,"B. fragilis; B. fragilis HM- 709, BHIS broth, anaerobic",8 µg/mL
same,MIC,B. fragilis; [6],16 µg/mL
same,MIC,"B. dorei; B. dorei HM- 719, BHIS broth, anaerobic",8 µg/mL
same,MIC,"Bif. breve; ATCC15700, Bif. breve ATCC 15700, BHIS broth, anaerobic, read-out: minimum inhibitory concentration (MIC)",> 256 µg/mL
same,MIC,"Bif. angulatum; Bif. angulatum HM- 1189, BHIS broth, anaerobic",8 µg/mL
same,MIC,"Bif. adolescentis; Bif. adolescentis HM- 633, BHIS broth, anaerobic",64 µg/mL
same,MIC,"Bif. longum; Bif. longum HM- 845, BHIS broth, anaerobic, read-out: minimum inhibitory concentration (MIC)",> 256 µg/mL
same,MIC,"Bif. longum; Bif. longum HM- 846, BHIS broth, anaerobic, read-out: minimum inhibitory concentration (MIC)",128 µg/mL
same,MIC,"Bif. longum; Bif. longum HM- 847, BHIS broth, anaerobic, read-out: minimum inhibitory concentration (MIC)",32 µg/mL
same,MIC,"Bif. longum; Bif. longum HM- 848, BHIS broth, anaerobic, read-out: minimum inhibitory concentration (MIC)",64 µg/mL
same,MIC,"E. faecium; E. faecium HM-202, TSB, aerobic",32 µg/mL
same,MIC,"E. fecalis; E. fecalis HM-970, TSB, aerobic",16 µg/mL
same,MIC,"L. casei; ATCC334, L. casei ATCC 334, MRS broth, 5% CO2, read-out: minimum inhibitory concentration (MIC)",32 µg/mL
same,MIC,"L. brevis; ATCC14864, L. brevis ATCC-14864, MRS broth, 5% CO2, read-out: minimum inhibitory concentration (MIC)",64 µg/mL
same,MIC,"L. rhamanosus; ATCC53103, L. rhamanosus ATCC-53103, MRS broth, 5% CO2, read-out: minimum inhibitory concentration (MIC)",> 256 µg/mL
same,MIC,[5],12.5 µM and 4 µg/mL
same,MIC,S. aureus,4 µg/mL
same,MIC,Acinetobacter baumannii,12.5 µM and 4 µg/mL
same,LD50,mice,7400 mg/kg
same,time to eliminate / clear C. difficile,[3],6 h
same,MIC (μM),[4],4 µM
same,MIC,[4],1.21 µg/mL
